Results as given in PubChem BioAssay (NCI).
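These data come from cells grown in 96-well plates and exposed to compound for 48 hours at five concentrations. Abbreviation: GI50, concentration required for 50% inhibition of growth. The concentration for full growth arrest is given as TGI.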

How the values were obtained:
Assay in all cases: DTP human tumour cell line panel, 48 h
MOLT-4 leukemia = system: MOLT-4 leukemia
HL-60(TB) leukemia = system: HL-60(TB) leukemia
UACC-257 melanoma = system: UACC-257 melanoma
HCT-116 colon = system: HCT-116 colon
TK-10 renal = system: TK-10 renal
PC-3 prostate = system: PC-3 prostate
T-47D breast = system: T-47D breast
CAKI-1 renal = system: CAKI-1 renal
SNB-19 CNS = system: SNB-19 CNS
SF-539 CNS = system: SF-539 CNS
OVCAR-5 ovarian = system: OVCAR-5 ovarian
M14 melanoma = system: M14 melanoma
MDA-MB-435 = system: MDA-MB-435
OVCAR-4 ovarian = system: OVCAR-4 ovarian
NCI-H226 lung = system: NCI-H226 lung
SN12C renal = system: SN12C renal
786-0 renal = system: 786-0 renal
U251 CNS = system: U251 CNS
NCI-H460 lung = system: NCI-H460 lung
HS 578T breast = system: HS 578T breast
K-562 leukemia = system: K-562 leukemia
SR leukemia = system: SR leukemia
KM12 colon = system: KM12 colon
OVCAR-8 ovarian = system: OVCAR-8 ovarian
EKVX NSCLC = system: EKVX NSCLC
RPMI-8226 leukemia = system: RPMI-8226 leukemia
ACHN renal = system: ACHN renal
SF-295 CNS = system: SF-295 CNS
SF-268 CNS = system: SF-268 CNS

How did the GI50 (MOLT-4 leukemia) turn out when `O=C(CSc1nnc(-c2ccc(Cl)cc2)n1-c1ccccc1)Nc1ccc(Cl)cc1` was run?
The GI50 was > 100 µM.

What about the TGI (MOLT-4 leukemia) of the same molecule?
Its TGI is > 100 µM.

And the GI50 (HL-60(TB) leukemia)?
The GI50 was > 100 µM.

What about the TGI (HL-60(TB) leukemia) of the same molecule?
The TGI was > 100 µM.

What about the GI50 (UACC-257 melanoma) of the same molecule?
Its GI50 is 39.8 µM.

What about the TGI (UACC-257 melanoma) of the same molecule?
Its TGI is > 100 µM.

What about the GI50 (HCT-116 colon) of the same molecule?
Its GI50 is 1.98 µM.

What about the TGI (HCT-116 colon) of the same molecule?
The TGI was 4.29 µM.

What about the GI50 (TK-10 renal) of the same molecule?
Its GI50 is 2.2 µM.

And the TGI (TK-10 renal)?
The TGI was 5.76 µM.

And the GI50 (PC-3 prostate)?
The GI50 was 20.1 µM.

What about the TGI (PC-3 prostate) of the same molecule?
The TGI was > 100 µM.

And the GI50 (T-47D breast)?
Its GI50 is 3.2 µM.

What about the TGI (T-47D breast) of the same molecule?
The TGI was > 100 µM.

And the GI50 (CAKI-1 renal)?
Its GI50 is 2.95 µM.

What about the TGI (CAKI-1 renal) of the same molecule?
Its TGI is 13 µM.

And the GI50 (SNB-19 CNS)?
The GI50 was 7.08 µM.

What about the TGI (SNB-19 CNS) of the same molecule?
The TGI was > 100 µM.

What about the GI50 (SF-539 CNS) of the same molecule?
Its GI50 is 2.38 µM.

What about the TGI (SF-539 CNS) of the same molecule?
Its TGI is 5.18 µM.

What about the GI50 (OVCAR-5 ovarian) of the same molecule?
Its GI50 is 4.89 µM.

What about the TGI (OVCAR-5 ovarian) of the same molecule?
Its TGI is > 100 µM.

What about the GI50 (M14 melanoma) of the same molecule?
The GI50 was 25.1 µM.

What about the TGI (M14 melanoma) of the same molecule?
Its TGI is > 100 µM.

What about the GI50 (MDA-MB-435) of the same molecule?
Its GI50 is 21.5 µM.

What about the TGI (MDA-MB-435) of the same molecule?
Its TGI is > 100 µM.

What about the GI50 (OVCAR-4 ovarian) of the same molecule?
The GI50 was 3.38 µM.

What about the TGI (OVCAR-4 ovarian) of the same molecule?
Its TGI is > 100 µM.

What about the GI50 (NCI-H226 lung) of the same molecule?
The GI50 was 3.2 µM.

And the TGI (NCI-H226 lung)?
The TGI was 20.8 µM.

And the GI50 (SN12C renal)?
Its GI50 is 3.19 µM.

What about the TGI (SN12C renal) of the same molecule?
Its TGI is > 100 µM.

What about the GI50 (786-0 renal) of the same molecule?
Its GI50 is 1.92 µM.

And the TGI (786-0 renal)?
The TGI was 4.09 µM.

And the GI50 (U251 CNS)?
The GI50 was 3.2 µM.

And the TGI (U251 CNS)?
The TGI was 11.5 µM.

What about the GI50 (NCI-H460 lung) of the same molecule?
The GI50 was 2.77 µM.

What about the TGI (NCI-H460 lung) of the same molecule?
The TGI was 8.09 µM.

What about the GI50 (HS 578T breast) of the same molecule?
The GI50 was 3.52 µM.

What about the TGI (HS 578T breast) of the same molecule?
The TGI was > 100 µM.

And the GI50 (K-562 leukemia)?
The GI50 was 13.4 µM.

What about the TGI (K-562 leukemia) of the same molecule?
Its TGI is > 100 µM.

And the GI50 (SR leukemia)?
Its GI50 is 4.28 µM.

And the TGI (SR leukemia)?
The TGI was > 100 µM.

What about the GI50 (KM12 colon) of the same molecule?
The GI50 was 47.1 µM.

What about the TGI (KM12 colon) of the same molecule?
Its TGI is > 100 µM.

What about the GI50 (OVCAR-8 ovarian) of the same molecule?
Its GI50 is 3.79 µM.

And the TGI (OVCAR-8 ovarian)?
Its TGI is 29.9 µM.

And the GI50 (EKVX NSCLC)?
Its GI50 is 20.9 µM.

And the TGI (EKVX NSCLC)?
The TGI was > 100 µM.

What about the GI50 (RPMI-8226 leukemia) of the same molecule?
Its GI50 is 4.14 µM.

What about the TGI (RPMI-8226 leukemia) of the same molecule?
Its TGI is > 100 µM.

And the GI50 (ACHN renal)?
Its GI50 is 1.76 µM.

What about the TGI (ACHN renal) of the same molecule?
The TGI was 3.98 µM.

And the GI50 (SF-295 CNS)?
Its GI50 is 5.56 µM.

What about the TGI (SF-295 CNS) of the same molecule?
The TGI was 21.1 µM.

And the GI50 (SF-268 CNS)?
The GI50 was 4.85 µM.
